Laboratory results taken from patent publication US10167300B2, “Metalloenzyme inhibitor compounds as fungicides” (priority 2014, dated 2019).
Read-outs that look alike come from different tables or passages of the source.

Key:
[1] = test system: Mycosphaerella graminicola; Anamorph: Septoria tritici; Bayer Code SEPTTR (standard laboratory isolate, SI SEPTTR); experiment: Type A (high volume) assay, leaf blotch of wheat, standard laboratory SEPTTR isolate (SI SEPTTR); format: in vivo, Mycosphaerella graminicola on wheat plants (variety Yuma); settings: Zymoseptoria tritici
Outline: (§1)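 Wheat seedlings (Yuma, first leaf emerged) sprayed with acetone/Triton X-100 solutions (Type A) or 10% EC diluted in 0.1% Trycol at 200 L/ha (Type B), inoculated before or after spraying. Inoculated plants held 3 days at 20 °C, 100% RH, then greenhouse; % disease control from severity versus untreated plants.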

[2] = Type B (low volume, EC formulation, track sprayer 200 L/ha) assay, leaf blotch of wheat, SEPTTR field isolate (FI SEPTTR); format: in vivo, Mycosphaerella graminicola on wheat plants (variety Yuma); settings: Zymoseptoria tritici, 72 h
Outline: as §1

[3] = test system: Mycosphaerella graminicola; Anamorph: Septoria tritici; Bayer Code SEPTTR (standard laboratory isolate, SI SEPTTR); experiment: Type B (low volume, EC formulation, track sprayer 200 L/ha) assay, leaf blotch of wheat, standard laboratory SEPTTR isolate (SI SEPTTR); format: in vivo, Mycosphaerella graminicola on wheat plants (variety Yuma); settings: Zymoseptoria tritici, 72 h
Outline: as §1

[4] = test system: Mycosphaerella graminicola; Anamorph: Septoria tritici; Bayer Code SEPTTR (field isolate collected from Wellsbourne, England in 2012, FI SEPTTR); experiment: Type B (low volume, EC formulation, track sprayer 200 L/ha) assay, leaf blotch of wheat, SEPTTR field isolate (FI SEPTTR); format: in vivo, Mycosphaerella graminicola on wheat plants (variety Yuma); settings: field isolate, low volume EC, 100 g/ha, wheat (Yuma); for Disease Control, FI SEPTTR Type B Assay (100 g/ha) 3 DC: 3 Day Curative; for Disease Control, FI SEPTTR Type B Assay (100 g/ha) 3 DP: 3 Day Protectant
Outline: as §1

[5] = 24 h, standard laboratory isolate, high volume, 50 ppm, 1 Day Protectant, wheat (Yuma), read-out: Disease Control, SI SEPTTR Type A Assay (50 ppm) 1 DP
[6] = field isolate, low volume EC, 100 g/ha, 3 Day Curative, wheat (Yuma), read-out: Disease Control, FI SEPTTR Type B Assay (100 g/ha) 3 DC
[7] = field isolate, low volume EC, 100 g/ha, 3 Day Protectant, wheat (Yuma), read-out: Disease Control, FI SEPTTR Type B Assay (100 g/ha) 3 DP
[8] = standard laboratory isolate, low volume EC, 100 g/ha, 3 Day Curative, wheat (Yuma), read-out: Disease Control, SI SEPTTR Type B Assay (100 g/ha) 3 DC
[9] = standard laboratory isolate, low volume EC, 100 g/ha, 3 Day Protectant, wheat (Yuma), read-out: Disease Control, SI SEPTTR Type B Assay (100 g/ha) 3 DP

Row | Structure (SMILES) | pest or weed control at 50 ppm [1, 5] [%] | pest or weed control at 100 g/ha [2, 6] [%] | pest or weed control at 100 g/ha [2, 7] [%] | pest or weed control at 100 g/ha [3, 8] [%] | pest or weed control at 100 g/ha [3, 9] [%] | other results
1 | CC(O)(Cc1cncnc1)c1ccc(-c2ccc(Cl)cc2)cn1 (stereo not drawn) [Compound 25, 2-[5-(4-chlorophenyl)-2-pyridyl]-1-pyrimidin-5-yl-propan-2-ol] | 40 to 59 |  |  |  |  | melting point: 150 to 155 °C; pest or weed control at 50 ppm ([1]; 72 h, standard laboratory isolate, high volume, 50 ppm, 3 Day Curative, wheat (Yuma), read-out: Disease Control, SI SEPTTR Type A Assay (50 ppm) 3 DC): 80 to 100%
2 | CC(C)(C)C(O)(c1cncnc1)c1ccc(-c2ccc([Si](C)(C)C)cc2)cn1 (stereo not drawn) [Compound 121] |  |  |  |  |  | pest or weed control at 100 g/ha ([2]; read-out: Disease Control, FI SEPTTR Type B Assay (100 g/ha) 3 DC): 80 to 100%; pest or weed control at 100 g/ha ([2]; read-out: Disease Control, FI SEPTTR Type B Assay (100 g/ha) 3 DP): 60 to 79%; pest or weed control at 50 ppm ([1]; 24 h, read-out: Disease Control, SI SEPTTR Type A Assay (50 ppm) 1 DP): 80 to 100%; pest or weed control at 100 g/ha ([3]; read-out: Disease Control, SI SEPTTR Type B Assay (100 g/ha) 3 DC): 80 to 100%; pest or weed control at 100 g/ha ([3]; read-out: Disease Control, SI SEPTTR Type B Assay (100 g/ha) 3 DP): 80 to 100%
3 | Cn1cc(-c2ccc(C(O)(c3cncnc3)C(C)(C)C)nc2)cn1 (stereo not drawn) [Compound 122] | 80 to 100 | 60 to 79 | 60 to 79 | 80 to 100 | 80 to 100 | 
4 | CC(C)(C)C(O)(c1cncnc1)c1ccc(-c2ccc(OC(F)(F)F)cc2F)cn1 (stereo not drawn) [Compound 124, 1-(5-(2-fluoro-4-(trifluoromethoxy)phenyl)pyridin-2-yl)-2,2-dimethyl-1-(pyrimidin-5-yl)propan-1-ol] | 80 to 100 | 80 to 100 | 80 to 100 | 80 to 100 | 80 to 100 | 
5 | CC(C)(C)C(O)(c1cncnc1)c1ccc(-c2ccc(SC(F)(F)F)cc2)cn1 (stereo not drawn) [Compound 125] | 80 to 100 | 80 to 100 | 60 to 79 | 80 to 100 | 80 to 100 | 
6 | Cc1cc(-c2ccc(CC(F)(F)F)nc2)cnc1C(O)(c1cncnc1)C(C)(C)C (stereo not drawn) [Compound 131] | 80 to 100 | 60 to 79 | 60 to 79 | 80 to 100 | 60 to 79 | 
7 | CC(C)(C)c1ccc(-c2ccc(C(O)(c3cccnc3)C(C)(C)C)nc2)cc1 (stereo not drawn) [Compound 143] | 80 to 100 | 80 to 100 | 80 to 100 | 80 to 100 | 60 to 79 | 
8 | CC(C)(C)C(O)(c1cccnc1)c1ccc(-c2ccc(C3(C#N)CC3)cc2)cn1 (stereo not drawn) [Compound 145] | 80 to 100 | 80 to 100 | 80 to 100 | 80 to 100 | 60 to 79 | 
9 | Cc1cc(OC(F)(F)F)ccc1-c1ccc(C(O)(c2cccnc2)C(C)(C)C)nc1 (stereo not drawn) [Compound 146] | 80 to 100 | 80 to 100 | 60 to 79 | 80 to 100 | 80 to 100 | 
10 | CC(C)(C#N)c1ccc(-c2ccc(C(O)(c3cncnc3)C(C)(C)C)nc2)cc1 (stereo not drawn) [Compound 152] | 80 to 100 | 80 to 100 | 80 to 100 | 80 to 100 | 80 to 100 | 
11 | Cc1ncncc1C(O)(c1ccc(-c2ccc(OC(F)(F)F)cc2F)cn1)C(C)(C)C (stereo not drawn) [Compound 157] | 80 to 100 | 80 to 100 | 80 to 100 | 80 to 100 | 80 to 100 | 
12 | Cc1cc(C2(C#N)CC2)ccc1-c1ccc(C(O)(c2cncnc2)C(C)(C)C)nc1 (stereo not drawn) [Compound 158] | 80 to 100 | 80 to 100 | 80 to 100 | 80 to 100 | 80 to 100 | 
13 | COc1ncncc1C(O)(c1ccc(-c2ccc(OC(F)(F)F)cc2)cn1)C(C)(C)C (stereo not drawn) [Compound 167] | 80 to 100 | 80 to 100 | 80 to 100 | 80 to 100 | 60 to 79 | 
14 | COc1ncncc1C(O)(c1ccc(-c2ccc(C3(C#N)CC3)cc2)cn1)C(C)(C)C (stereo not drawn) [Compound 169] | 80 to 100 | 80 to 100 | 80 to 100 | 80 to 100 | 60 to 79 | 
15 | CCOC(CC)(c1cncnc1)c1ccc(-c2ccc(OC(F)(F)F)cc2F)cn1 (stereo not drawn) [Compound 193] |  |  |  |  |  | Disease Control, FI SEPTTR Type B Assay (100 g/ha) 3 DC [4]: D (<40); Disease Control, FI SEPTTR Type B Assay (100 g/ha) 3 DP [4]: B (60-79)
16 | CC(C)(C)C(O)(Cc1cncnc1)c1ccc(-c2ccc(SC(F)(F)F)cc2)cn1 (stereo not drawn) [Compound 231] |  |  |  |  |  | Disease Control, FI SEPTTR Type B Assay (100 g/ha) 3 DC [4]: D (<40); Disease Control, FI SEPTTR Type B Assay (100 g/ha) 3 DP [4]: B (60-79)
